Measurements taken from article PMC10299128, “The Parallel Structure–Activity Relationship Screening of Three Compounds Identifies the Common Agonist Pharmacophore of Pyrrolidine Bis-Cyclic Guanidine Melanocortin-3 Receptor (MC3R) Small-Molecule Ligands” (International Journal of Molecular Sciences, 2023).

Key:
[1] = target: mMC5R (Mus musculus, UniProt P41149); test: AlphaScreen cAMP agonist assay, HEK293 cells stably expressing mMC5R; conditions: for mMC5R partial agonist efficacy bin: sigmoidal curve, efficacy <90% of NDP-MSH; for mMC5R percent maximal stimulatory response (compared to NDP-MSH): at 1 mM, not enough stimulation to determine EC50
Sequence of mMC5R (P41149 whole entry): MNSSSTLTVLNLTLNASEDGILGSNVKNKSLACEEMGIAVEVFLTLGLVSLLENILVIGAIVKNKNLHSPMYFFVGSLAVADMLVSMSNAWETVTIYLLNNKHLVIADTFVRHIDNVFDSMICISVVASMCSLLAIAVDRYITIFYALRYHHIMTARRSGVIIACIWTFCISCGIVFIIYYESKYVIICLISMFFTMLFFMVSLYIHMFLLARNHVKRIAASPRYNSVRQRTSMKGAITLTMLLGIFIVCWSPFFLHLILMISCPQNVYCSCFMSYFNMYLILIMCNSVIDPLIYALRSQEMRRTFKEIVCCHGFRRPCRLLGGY
Method: (§1) Pyrrolidine bis-cyclic guanidine compounds were assessed for biological activity using the AlphaScreen cAMP kit with HEK293 cells stably expressing the mMC1R, mMC3R, mMC4R, or mMC5R, as previously described [37, 38, 39]. […] Compounds were assayed for agonist activity in a 7-point dose–response curve (10^−3 to 10^−9 M). […] The purified compounds were dissolved in DMSO at a stock concentration of 10^−1 M and assayed using HEK293 cells stably expressing the mouse MC1R, MC3R, MC4R, and MC5R using the AlphaScreen cAMP bioassay (PerkinElmer, Waltham, MA, USA) according to the manufacturer’s instructions and as previously described [37, 38, 39].
(§2) Briefly, cells 70−90% confluent were dislodged with Versene (Gibco, Waltham, MA, USA) at 37 °C and 10,000 cells/well were plated in a 384-well plate (Optiplate, PerkinElmer, Waltham, MA, USA) with 10 μL of freshly prepared stimulation buffer (1× HBSS, 5 mM HEPES, 0.5 mM IBMX, 0.1% BSA, pH = 7.4) with 0.5 μg of anti-cAMP acceptor beads per well. The cells were stimulated with the addition of 5 μL of stimulation buffer containing compound or forskolin (10^−4 M) and incubated in the dark at room temperature for 2 h. Following stimulation, streptavidin donor beads (0.5 μg) and biotinylated cAMP (0.62 μmol) were added to the wells in a green light environment with 10 μL of lysis buffer (5 mM HEPES, 0.3% Tween-20, 0.1% BSA, pH = 7.4) and the plates were incubated in the dark at room temperature for an additional 2 h. Plates were read on a Enspire (PerkinElmer, Waltham, MA, USA) Alpha plate reader using a pre-normalized assay protocol (set by the manufacturer).

[2] = target: mMC1R (Mus musculus, UniProt Q01727); test: AlphaScreen cAMP agonist assay, HEK293 cells stably expressing mMC1R; conditions: for mMC1R percent maximal stimulatory response (compared to NDP-MSH): at 1 mM, not enough stimulation to determine EC50; for mMC1R partial agonist efficacy bin: sigmoidal curve, efficacy <90% of NDP-MSH
Sequence of mMC1R (Q01727 whole entry): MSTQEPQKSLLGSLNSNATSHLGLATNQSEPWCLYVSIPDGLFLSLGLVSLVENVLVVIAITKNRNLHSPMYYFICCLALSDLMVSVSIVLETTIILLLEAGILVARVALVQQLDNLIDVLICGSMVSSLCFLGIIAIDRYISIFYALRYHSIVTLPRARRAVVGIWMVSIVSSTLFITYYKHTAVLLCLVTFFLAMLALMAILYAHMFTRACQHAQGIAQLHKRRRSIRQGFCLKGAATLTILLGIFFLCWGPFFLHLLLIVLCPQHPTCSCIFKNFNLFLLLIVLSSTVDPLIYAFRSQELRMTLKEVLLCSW
Method: as §1, §2

[3] = target: mMC3R (Mus musculus, UniProt P33033); test: AlphaScreen cAMP agonist assay, HEK293 cells stably expressing mMC3R; conditions: for mMC3R percent maximal stimulatory response (compared to NDP-MSH): at 1 mM, not enough stimulation to determine EC50; for mMC3R partial agonist efficacy bin: sigmoidal curve, efficacy <90% of NDP-MSH
Sequence of mMC3R (P33033 whole entry): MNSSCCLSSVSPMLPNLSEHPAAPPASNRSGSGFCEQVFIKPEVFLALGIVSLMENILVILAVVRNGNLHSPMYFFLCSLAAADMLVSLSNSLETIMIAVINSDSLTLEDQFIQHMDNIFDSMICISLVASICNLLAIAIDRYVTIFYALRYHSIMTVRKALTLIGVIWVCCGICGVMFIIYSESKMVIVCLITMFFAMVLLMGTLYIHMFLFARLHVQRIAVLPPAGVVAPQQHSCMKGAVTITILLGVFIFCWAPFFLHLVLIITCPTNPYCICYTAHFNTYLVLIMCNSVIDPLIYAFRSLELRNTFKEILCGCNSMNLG
Method: as §1, §2

[4] = target: mMC4R (Mus musculus, UniProt P56450); test: AlphaScreen cAMP agonist assay, HEK293 cells stably expressing mMC4R; conditions: for mMC4R partial agonist efficacy bin: sigmoidal curve, efficacy <90% of NDP-MSH; for mMC4R percent maximal stimulatory response (compared to NDP-MSH): at 1 mM, not enough stimulation to determine EC50
Sequence of mMC4R (P56450 whole entry): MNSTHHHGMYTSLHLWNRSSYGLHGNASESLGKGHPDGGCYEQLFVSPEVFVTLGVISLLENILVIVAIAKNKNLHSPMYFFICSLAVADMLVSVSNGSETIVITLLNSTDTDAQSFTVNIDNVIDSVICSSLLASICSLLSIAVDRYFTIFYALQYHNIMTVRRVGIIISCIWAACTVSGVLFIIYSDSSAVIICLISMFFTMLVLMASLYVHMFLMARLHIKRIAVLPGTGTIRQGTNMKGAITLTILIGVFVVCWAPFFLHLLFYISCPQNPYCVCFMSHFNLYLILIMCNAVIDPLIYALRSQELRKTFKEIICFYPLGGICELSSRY
Method: as §1, §2

Row | Compound | EC50 [1] [µM] | EC50 [2] [µM] | mMC3R percent maximal stimulatory response (compared to NDP-MSH) [3] [% @ 1 mM] | EC50 [4] [µM] | EC50 [3] [µM] | mMC3R partial agonist efficacy bin [3] | mMC4R percent maximal stimulatory response (compared to NDP-MSH) [4] [% @ 1 mM] | mMC1R partial agonist efficacy bin [2] | further results
1 | CCC[C@@H]1CN([C@@H](CC2CCCCC2)CN2CCC[C@H]2CN2C(=N)NC[C@H]2C(C)C)C(=N)N1CC1CCC(C(C)(C)C)CC1 (stereo partly drawn) [Compound 2718.051] | 11 | 6 ± 2 | 65 | 50 | – | – | – | – | fold decreased mMC5R agonist potency ([1]; relative to 2718.003): 9 fold; fold decreased mMC1R agonist potency ([2]; relative to 2718.003): 9 fold; mMC4R partial agonist efficacy bin [4]: B (B (51–90% receptor activation))
2 | CC(C)C[C@@H]1CNC(=N)N1C[C@@H]1CCCN1C[C@@H](CC1CCCCC1)N1C[C@H]([C@@H](C)O)N(CC2CCC(C(C)(C)C)CC2)C1=N (stereo partly drawn) [Compound 2718.045] | 2.2 ± 0.7 | 1 ± 0.1 | – | – | 3.5 ± 0.2 | B (B (51–90% receptor activation)) | 50 | – | fold decreased mMC5R agonist potency ([1]; relative to 2718.002): 8 fold; fold decreased mMC1R agonist potency ([2]; relative to 2718.002): 4 fold
3 | CC(C)C[C@@H]1CNC(=N)N1C[C@H]1CCCN1C[C@H](Cc1ccccc1)N1C[C@@H]([C@H](C)O)N(CC2CCC(C(C)(C)C)CC2)C1=N (stereo partly drawn) [Compound 2718.038] | 1.4 ± 0.3 | 0.6 ± 0.1 | – | 1.6 ± 0.3 | 5.9 ± 0.9 | B (B (51–90% receptor activation)) | – | – | fold decreased mMC5R agonist potency ([1]; relative to 2718.001): 5 fold; mMC4R partial agonist efficacy bin [4]: B (B (51–90% receptor activation))
4 | CC(C)C[C@@H]1CNC(=N)N1C[C@H]1CCCN1C[C@@H](Cc1ccccc1)N1C[C@H]([C@@H](C)O)N(CC2CCC(C(C)(C)C)CC2)C1=N (stereo partly drawn) [Compound 2718.036] | 5.8 ± 0.9 | 0.9 ± 0.3 | 50 | – | – | – | 55 | – | mMC5R partial agonist efficacy bin [1]: B (B (51–90% receptor activation))
5 | CC(C)C[C@@H]1CNC(=N)N1C[C@@H]1CCCN1C[C@@H](Cc1ccccc1)N1CCNC1=N [Compound 2718.006] | – | – | – | – | > 1000 | – | 20 | – | mMC5R percent maximal stimulatory response (compared to NDP-MSH) [1]: 30% @ 1 mM; mMC1R percent maximal stimulatory response (compared to NDP-MSH) [2]: 40% @ 1 mM
6 | CC(C)C[C@H]1CNC(=N)N1C[C@@H]1CCCN1C[C@H](Cc1ccccc1)N1C[C@H]([C@@H](C)O)N(CC2CCC(C(C)(C)C)CC2)C1=N (stereo partly drawn) [Compound 2718.042] | 21.3 | 2.9 ± 0.2 | 65 | – | – | – | 65 | – | mMC5R partial agonist efficacy bin [1]: B (B (51–90% receptor activation)); fold decreased mMC1R agonist potency ([2]; relative to 2718.001): 9 fold
7 | CC(C)[C@@H]1CNC(=N)N1C[C@@H]1CCCN1C[C@@H](CC1CCCCC1)N1CCNC1=N [Compound 2718.016] | – | 30 | – | – | > 1000 | – | – | B (B (51–90% receptor activation)) | –
8 | CC(C)CC1CNC(=N)N1CC1CCCN1CC(C1CCCCC1)N1CC(C(C)O)N(CC2CCC(C(C)(C)C)CC2)C1=N (stereo not drawn) [Compound 2718.059] | 6 ± 1 | – | – | – | 11 | A (A (20–50% receptor activation)) | – | – | fold decreased mMC5R agonist potency ([1]; relative to 2718.002): 20 fold
9 | CC(C)C[C@@H]1CNC(=N)N1C[C@@H]1CCCN1C[C@@H](CC1CCCCC1)N1CCNC1=N [Compound 2718.012] | – | 15 | – | > 1000 | > 1000 | – | – | B (B (51–90% receptor activation)) | –
10 | CC(C)C[C@@H]1CNC(=N)N1C[C@@H]1CCCN1C[C@H](Cc1ccccc1)N1C[C@@H]([C@H](C)O)N(CC2CCC(C(C)(C)C)CC2)C1=N (stereo partly drawn) [Compound 2718.031] | – | 2.3 ± 0.9 | 55 | – | – | – | 55 | – | mMC5R percent maximal stimulatory response (compared to NDP-MSH) [1]: 70% @ 1 mM; fold decreased mMC1R agonist potency ([2]; relative to 2718.001): 7 fold
11 | CC(C)C[C@@H]1CNC(=N)N1C[C@H]1CCCN1C[C@@H](Cc1ccccc1)N1C[C@@H]([C@H](C)O)N(CC2CCC(C(C)(C)C)CC2)C1=N (stereo partly drawn) [Compound 2718.032] | 0.6 ± 0.2 | 0.4 ± 0.06 | – | – | 1.5 ± 0.4 | B (B (51–90% receptor activation)) | 55 | – | –
12 | CC(C)CC1CNC(=N)N1CC1CCCN1CC(Cc1ccc(O)cc1)N1CC(C(C)O)N(CC2CCC(C(C)(C)C)CC2)C1=N (stereo not drawn) [Compound 2718.057] | 6 ± 2 | 0.5 ± 0.1 | – | – | 11 | B (B (51–90% receptor activation)) | – | – | mMC5R partial agonist efficacy bin [1]: B (B (51–90% receptor activation))
13 | CCN1C(=N)N([C@H](Cc2ccccc2)CN2CCC[C@H]2CN2C(=N)NC[C@H]2CC(C)C)C[C@H]1[C@H](C)O [Compound 2718.004] | > 1000 | 20.6 | – | > 1000 | > 1000 | – | – | A (A (20–50% receptor activation)) | –
14 | CCC[C@H]1CN([C@@H](CC2CCCCC2)CN2CCC[C@@H]2CN2C(=N)NC[C@@H]2C(C)C)C(=N)N1CC1CCC(C(C)(C)C)CC1 (stereo partly drawn) [Compound 2718.054] | 3.5 ± 0.3 | – | 55 | – | – | – | 60 | – | mMC1R percent maximal stimulatory response (compared to NDP-MSH) [2]: 65% @ 1 mM
15 | CCC[C@H]1CN([C@H](CC2CCCCC2)CN2CCC[C@H]2CN2C(=N)NC[C@H]2C(C)C)C(=N)N1CC1CCC(C(C)(C)C)CC1 (stereo partly drawn) [Compound 2718.050] | 4.2 ± 0.5 | 3.2 ± 0.5 | – | 39 | 27 | B (B (51–90% receptor activation)) | – | – | fold decreased mMC1R agonist potency ([2]; relative to 2718.003): 5 fold; mMC4R partial agonist efficacy bin [4]: B (B (51–90% receptor activation))
16 | CCC[C@@H]1CN([C@H](CC2CCCCC2)CN2CCC[C@H]2CN2C(=N)NC[C@H]2C(C)C)C(=N)N1CC [Compound 2718.014] | – | 9 ± 3 | 20 | > 1000 | – | – | – | B (B (51–90% receptor activation)) | mMC5R percent maximal stimulatory response (compared to NDP-MSH) [1]: 50% @ 1 mM
17 | CCC[C@@H]1CN(CCN2CCC[C@H]2CN2C(=N)NC[C@H]2C(C)C)C(=N)N1CC1CCC(C(C)(C)C)CC1 (stereo partly drawn) [Compound 2718.028] | 19 | 10 | 35 | – | – | – | 35 | B (B (51–90% receptor activation)) | mMC5R partial agonist efficacy bin [1]: B (B (51–90% receptor activation))
18 | CC(C)C[C@H]1CNC(=N)N1C[C@@H]1CCCN1C[C@@H](Cc1ccccc1)N1C[C@H]([C@@H](C)O)N(CC2CCC(C(C)(C)C)CC2)C1=N (stereo partly drawn) [Compound 2718.037] | 7 ± 1 | 0.9 ± 0.2 | 50 | – | – | – | 55 | B (B (51–90% receptor activation)) | mMC5R partial agonist efficacy bin [1]: B (B (51–90% receptor activation))
19 | CC(C)C[C@@H]1CNC(=N)N1C[C@@H]1CCCN1C[C@@H](CC1CCCCC1)N1C[C@@H]([C@H](C)O)NC1=N [Compound 2718.011] | – | 15 | – | > 1000 | > 1000 | – | – | B (B (51–90% receptor activation)) | –
20 | CCC[C@@H]1CN([C@H](CC2CCCCC2)CN2CCC[C@H]2CN2C(=N)NC[C@H]2C(C)C)C(=N)N1 [Compound 2718.015] | – | 11 | – | > 1000 | > 1000 | – | – | B (B (51–90% receptor activation)) | mMC5R percent maximal stimulatory response (compared to NDP-MSH) [1]: 35% @ 1 mM
21 | CC(C)C[C@H]1CNC(=N)N1C[C@H]1CCCN1C[C@@H](Cc1ccccc1)N1C[C@@H]([C@H](C)O)N(CC2CCC(C(C)(C)C)CC2)C1=N (stereo partly drawn) [Compound 2718.040] | 0.5 ± 0.03 | 0.9 ± 0.3 | – | – | 3.7 ± 0.4 | B (B (51–90% receptor activation)) | 60 | – | –
22 | CC(C)CC1CNC(=N)N1CC1CCCN1CC(Cc1ccc2ccccc2c1)N1CC(C(C)O)N(CC2CCC(C(C)(C)C)CC2)C1=N (stereo not drawn) [Compound 2718.055] | 8 ± 2 | 1 ± 0.2 | – | – | 7 ± 3 | B (B (51–90% receptor activation)) | – | – | –
23 | CC(C)CC1CNC(=N)N1CC1CCCN1CC(Cc1c[nH]c2ccccc12)N1CC(C(C)O)N(CC2CCC(C(C)(C)C)CC2)C1=N (stereo not drawn) [Compound 2718.056] | 14 | 6 ± 3 | – | – | – | – | – | B (B (51–90% receptor activation)) | fold decreased mMC5R agonist potency ([1]; relative to 2718.002): 50 fold
24 | CC(C)C[C@@H]1CNC(=N)N1C[C@H]1CCCN1C[C@@H](CC1CCCCC1)N1C[C@@H]([C@H](C)O)N(CC2CCC(C(C)(C)C)CC2)C1=N (stereo partly drawn) [Compound 2718.047] | 0.45 ± 0.03 | 0.87 ± 0.07 | – | 3.1 ± 0.2 | – | – | – | – | mMC4R partial agonist efficacy bin [4]: B (B (51–90% receptor activation))
25 | CC(C)C[C@H]1CNC(=N)N1C[C@@H]1CCCN1C[C@@H](CC1CCCCC1)N1C[C@@H]([C@H](C)O)N(CC2CCC(C(C)(C)C)CC2)C1=N (stereo partly drawn) [Compound 2718.048] | 0.65 ± 0.08 | 0.39 ± 0.03 | – | – | 2.9 ± 0.2 | B (B (51–90% receptor activation)) | – | – | –
26 | CC(C)C[C@H]1CNC(=N)N1C[C@H]1CCCN1C[C@H](CC1CCCCC1)N1C[C@H]([C@@H](C)O)N(CC2CCC(C(C)(C)C)CC2)C1=N (stereo partly drawn) [Compound 2718.049] | 2.8 ± 0.1 | 8 ± 2 | – | – | – | – | – | B (B (51–90% receptor activation)) | fold decreased mMC5R agonist potency ([1]; relative to 2718.002): 10 fold
